Experimental data taken from patent publication EP0054974A1, “Imidazolylpropanol compounds and their acid addition salts, and production and use thereof” (SUMITOMO CHEMICAL COMPANY, LIMITED, priority 1980, dated 1982).
Values after ≈ are worked out from the molar mass of the structure shown.

How the values were obtained:
Trichophyton rubrum = test: Antifungal activity in vitro, minimum inhibitory concentration on Sabouraud's agar medium; type: cell-based
From the text: (§1) The antifungal activity of some representatives of the imidazolylpropanol compounds (I) in in vitro test is as shown below.

Candida albicans Ohta = test: as above; type: cell-based
From the text: as §1

[1] = test system: Candida albicans MTU12001; test: as above; type: cell-based
From the text: as §1

Candida albicans KB-8 = test: Antifungal activity in vivo (decrease of cells in the kidney of Candida-infected mice); conditions: for log reduction at 20 mg/kg: number of cells in kidney, 24 hours after infection; for Medicated group, number of cells in kidney: male DDY mice infected i.v. with Candida albicans KB-8, kidneys 24 hours after infection
Procedure: The in vivo test of the antifungal activity with the said representative ones of the imidazolylpropanol compounds (I) was carried out in the following manner:
Candida albicans KB-8 cultured on the Sabroud's. agar plate admixed with blood in a concentration of 5 % by weight at 30°C for 4 days was suspended in physiologically saline solution to make a number of cells of 10^7/ml. The suspension was intravenously injected through the tail vein into 5 week old male DDY mice at a dose of 0.2 ml per mouse. […]
After 24 hours from the infection, the animals were killed and the kidneys were taken out. Each kidney was admixed with sea sand and smashed. After diluting with physiologically saline solution to give 5 times in volume, the dilution was centrifuged at 900 rpm for 5 minutes. A certain amount of the supernatant was scattered on a Sabroud's agar plate and cultured at 37°C for 48 hours. Then, the number of colonies was counted, the number of cells per one gram of the kidney was calculated, and the difference between the calculated numbers in the medicated group and in the non-medicated group was expressed by a logarithmic value.

[2] = Candida albicans, KB8, po, dose 20 mg/kg per os, read-out: Medicated/Non-medicated (logarithmic value)

SMILES | MIC (Trichophyton rubrum) [µg/mL] | MIC (Candida albicans Ohta) [µg/mL] | MIC [1] [µg/mL] | log reduction at 20 mg/kg (Candida albicans KB-8; [2]) | Medicated group, number of cells in kidney (Candida albicans KB-8; dose 20 mg/kg per os) | log reduction at 100 mg/kg (Candida albicans KB-8; Candida albicans, KB8, po, 24 h, read-out: Medicated/Non-medicated (logarithmic value)) | Medicated group, number of cells in kidney (Candida albicans KB-8; dose 100 mg/kg per os)
OC(CSc1ccccc1)(Cn1ccnc1)c1ccc(Cl)cc1Cl (stereo not drawn) | 10 (≈ 26.4 µM) | 5 (≈ 13.2 µM) | 0.15 (≈ 0.395 µM) |  |  |  | 
Cc1cccc(SCC(O)(Cn2ccnc2)c2ccc(Cl)cc2Cl)c1 (stereo not drawn) | 5 (≈ 12.7 µM) | 0.6 (≈ 1.53 µM) | 0.15 (≈ 0.381 µM) |  |  |  | 
COc1ccc(SCC(O)(Cn2ccnc2)c2ccc(Cl)cc2Cl)cc1 (stereo not drawn) | 20 (≈ 48.9 µM) | 5 (≈ 12.2 µM) | 0.3 (≈ 0.733 µM) |  |  |  | 
OC(CSc1ccc(F)cc1)(Cn1ccnc1)c1ccc(Cl)cc1Cl (stereo not drawn) | 40 (≈ 101 µM) | 2.5 (≈ 6.29 µM) | 0.3 (≈ 0.755 µM) |  |  |  | 
OC(CSCc1ccccc1)(Cn1ccnc1)c1ccc(Cl)cc1Cl (stereo not drawn) | 5 (≈ 12.7 µM) | 2.5 (≈ 6.36 µM) | 0.075 (≈ 0.191 µM) |  |  |  | 
OC(CSc1ccncc1)(Cn1ccnc1)c1ccc(Cl)cc1Cl (stereo not drawn) | 20 (≈ 52.6 µM) | 40 to 100 (≈ 105 to 263 µM) | 10 (≈ 26.3 µM) |  |  |  | 
CC(C)SCC(O)(Cn1ccnc1)c1ccc(Cl)cc1Cl (stereo not drawn) | 5 (≈ 14.5 µM) | 40 (≈ 116 µM) | 0.6 (≈ 1.74 µM) |  |  |  | 
CC(C)CCOCC(O)(Cn1ccnc1)c1ccc(Cl)cc1Cl (stereo not drawn) | 5 (≈ 14 µM) | 40 (≈ 112 µM) | 0.6 (≈ 1.68 µM) |  |  |  | 
OC(COCc1ccccc1)(Cn1ccnc1)c1ccc(Cl)cc1Cl (stereo not drawn) | 0.6 (≈ 1.59 µM) | 40 (≈ 106 µM) | 10 (≈ 26.5 µM) |  |  |  | 
OC(COCCc1ccccc1)(Cn1ccnc1)c1ccc(Cl)cc1Cl (stereo not drawn) | 2.5 (≈ 6.39 µM) | 40 (≈ 102 µM) | 0.6 (≈ 1.53 µM) |  |  |  | 
OC(COCCSc1ccccc1)(Cn1ccnc1)c1ccc(Cl)cc1Cl (stereo not drawn) | 5 (≈ 11.8 µM) | 20 (≈ 47.2 µM) | 1.25 (≈ 2.95 µM) |  |  |  | 
OC(CNC1CCCCC1)(Cn1ccnc1)c1ccc(Cl)cc1Cl (stereo not drawn) |  |  |  | 1.27 | 8.91x10^3 cell/g |  | 
CCCCCCNCC(O)(Cn1ccnc1)c1ccc(Cl)cc1Cl (stereo not drawn) [CH3-(CH2)5-NH-] |  |  |  | 1.52 | 1.75x10^3 cell/g |  | 
Clc1ccc(COC(Cn2ccnc2)c2ccc(Cl)cc2Cl)c(Cl)c1 (stereo not drawn) [Miconazole, 1-[2,4-Dichloro-β-(2,4-dichlorobenzyloxy)phenylethyl]imidazole, reference compound] |  |  |  |  |  | 0.8 | 2.96x10^4 cell/g
OC(CNCc1ccccc1)(Cn1ccnc1)c1ccc(Cl)cc1Cl (stereo not drawn) [the 6th table, row 5] |  |  |  | 1.6 | 4.17x10^3 cell/g |  | 
OCCNCC(O)(Cn1ccnc1)c1ccc(Cl)cc1Cl (stereo not drawn) [the 6th table, row 6] |  |  |  | 1.58 | 1.91x10^3 cell/g |  | 
OC(CNCCN1CCOCC1)(Cn1ccnc1)c1ccc(Cl)cc1Cl (stereo not drawn) [the 6th table, row 7] |  |  |  | 1.23 | 9.78x10^3 cell/g |  | 
OC(CNCc1ccco1)(Cn1ccnc1)c1ccc(Cl)cc1Cl (stereo not drawn) [the 7th table, row 3] |  |  |  | 1.05 | 5.13x10^3 cell/g |  | 
OC(CNCC1CCCO1)(Cn1ccnc1)c1ccc(Cl)cc1Cl (stereo not drawn) [the 7th table, row 4] |  |  |  | 1.01 | 5.62x10^3 cell/g |  | 
CN1CCN(CC(O)(Cn2ccnc2)c2ccc(Cl)cc2Cl)CC1 (stereo not drawn) [the 7th table, row 5] |  |  |  | 1.59 | 8.32x10^3 cell/g |  | 
OC(CN1CCN(c2ccccc2)CC1)(Cn1ccnc1)c1ccc(Cl)cc1Cl (stereo not drawn) [the 7th table, row 6] |  |  |  | 1.58 | 1.52x10^3 cell/g |  | 
OC(CN1CCN(Cc2ccccc2)CC1)(Cn1ccnc1)c1ccc(Cl)cc1Cl (stereo not drawn) [the 7th table, row 7] |  |  |  | 1.15 | 4.09x10^3 cell/g |  | 

The next lines start with results.

MIC (Trichophyton rubrum) [µg/mL] | MIC (Candida albicans Ohta) [µg/mL] | MIC [1] [µg/mL] | SMILES | log reduction at 20 mg/kg (Candida albicans KB-8; [2]) | Medicated group, number of cells in kidney (Candida albicans KB-8; dose 20 mg/kg per os) | log reduction at 100 mg/kg (Candida albicans KB-8; Candida albicans, KB8, po, 24 h, read-out: Medicated/Non-medicated (logarithmic value)) | Medicated group, number of cells in kidney (Candida albicans KB-8; dose 100 mg/kg per os)
5 (≈ 12.6 µM) | 20 (≈ 50.3 µM) | 1.25 (≈ 3.14 µM) | OC(COc1ccccc1Cl)(Cn1ccnc1)c1ccc(Cl)cc1Cl (stereo not drawn) |  |  |  | 
10 (≈ 30.6 µM) | 40 to 100 (≈ 122 to 306 µM) | 1.25 (≈ 3.82 µM) | C=CCOCC(O)(Cn1ccnc1)c1ccc(Cl)cc1Cl (stereo not drawn) [CH2=CH-CH2-O-] |  |  |  | 
0.6 (≈ 1.75 µM) | 40 (≈ 117 µM) | 5 (≈ 14.6 µM) | CCCCOCC(O)(Cn1ccnc1)c1ccc(Cl)cc1Cl (stereo not drawn) [CH3-(CH2)3-O-, 3-n-butyloxy-2-(2,4-dichlorophenyl)-l-(imidazol-l-yl)-2-propanol] |  |  |  | 
0.6 (≈ 1.67 µM) | 1.25 (≈ 3.48 µM) | 0.075 (≈ 0.209 µM) | CCCCSCC(O)(Cn1ccnc1)c1ccc(Cl)cc1Cl (stereo not drawn) [CH3-(CH2)3-S-] |  |  |  | 
1.25 (≈ 3.35 µM) | 5 (≈ 13.4 µM) | 1.25 (≈ 3.35 µM) | CCCCCSCC(O)(Cn1ccnc1)c1ccc(Cl)cc1Cl (stereo not drawn) [CH3-(CH2)4-S-] |  |  |  | 
0.6 (≈ 1.55 µM) | 2.5 (≈ 6.45 µM) | 0.3 (≈ 0.774 µM) | CCCCCCSCC(O)(Cn1ccnc1)c1ccc(Cl)cc1Cl (stereo not drawn) [CH3-(CH2)5-S-] |  |  |  | 
0.3 (≈ 0.722 µM) | 1.25 (≈ 3.01 µM) | 0.15 (≈ 0.361 µM) | CCCCCCCCSCC(O)(Cn1ccnc1)c1ccc(Cl)cc1Cl (stereo not drawn) [CH3-(CH2)7-S-] |  |  |  | 
 | 40 to 100 (≈ 106 to 266 µM) | 40 to 100 (≈ 106 to 266 µM) | OC(CNCc1ccccc1)(Cn1ccnc1)c1ccc(Cl)cc1Cl (stereo not drawn) [the 5th table, row 0] |  |  |  | 
40 to 100 (≈ 121 to 303 µM) | 40 to 100 (≈ 121 to 303 µM) | 40 to 100 (≈ 121 to 303 µM) | OCCNCC(O)(Cn1ccnc1)c1ccc(Cl)cc1Cl (stereo not drawn) [the 5th table, row 1] |  |  |  | 
40 to 100 (≈ 100 to 250 µM) | 40 to 100 (≈ 100 to 250 µM) | 40 to 100 (≈ 100 to 250 µM) | OC(CNCCN1CCOCC1)(Cn1ccnc1)c1ccc(Cl)cc1Cl (stereo not drawn) [the 5th table, row 2] |  |  |  | 
40 to 100 (≈ 109 to 273 µM) | 40 to 100 (≈ 109 to 273 µM) | 40 to 100 (≈ 109 to 273 µM) | OC(CNCc1ccco1)(Cn1ccnc1)c1ccc(Cl)cc1Cl (stereo not drawn) [the 5th table, row 3] |  |  |  | 
40 to 100 (≈ 108 to 270 µM) | 40 to 100 (≈ 108 to 270 µM) | 40 to 100 (≈ 108 to 270 µM) | OC(CNCC1CCCO1)(Cn1ccnc1)c1ccc(Cl)cc1Cl (stereo not drawn) [the 5th table, row 4] |  |  |  | 
40 to 100 (≈ 108 to 271 µM) | 40 (≈ 108 µM) | 2.5 (≈ 6.77 µM) | CN1CCN(CC(O)(Cn2ccnc2)c2ccc(Cl)cc2Cl)CC1 (stereo not drawn) [the 5th table, row 5] |  |  |  | 
0.6 (≈ 1.39 µM) | 20 (≈ 46.4 µM) | 5 (≈ 11.6 µM) | OC(CN1CCN(c2ccccc2)CC1)(Cn1ccnc1)c1ccc(Cl)cc1Cl (stereo not drawn) [the 5th table, row 6] |  |  |  | 
20 (≈ 44.9 µM) | 40 to 100 (≈ 89.8 to 225 µM) | 40 to 100 (≈ 89.8 to 225 µM) | OC(CN1CCN(Cc2ccccc2)CC1)(Cn1ccnc1)c1ccc(Cl)cc1Cl (stereo not drawn) [the 5th table, row 7] |  |  |  | 
